Patent US20240116985A1, “STAPLED PEPTIDES AND METHODS THEREOF” (priority 2020, published 2024)
In brackets after ≈: the same amount, converted by molar mass. Where two headings read alike, the source gives them in different places.

Tests used:
[1] = biological target: T1, full-length beta-Catenin (Uniprot ID P35222) (Homo sapiens, UniProt P35222); assay: Fluorescence polarization IC50 (beta-catenin / 5FAM-TCF4 10-53 competition); assay type: binding
T1 construct: 10 nM full-length beta-Catenin (Uniprot ID P35222)
T1 sequence (P35222 1-781): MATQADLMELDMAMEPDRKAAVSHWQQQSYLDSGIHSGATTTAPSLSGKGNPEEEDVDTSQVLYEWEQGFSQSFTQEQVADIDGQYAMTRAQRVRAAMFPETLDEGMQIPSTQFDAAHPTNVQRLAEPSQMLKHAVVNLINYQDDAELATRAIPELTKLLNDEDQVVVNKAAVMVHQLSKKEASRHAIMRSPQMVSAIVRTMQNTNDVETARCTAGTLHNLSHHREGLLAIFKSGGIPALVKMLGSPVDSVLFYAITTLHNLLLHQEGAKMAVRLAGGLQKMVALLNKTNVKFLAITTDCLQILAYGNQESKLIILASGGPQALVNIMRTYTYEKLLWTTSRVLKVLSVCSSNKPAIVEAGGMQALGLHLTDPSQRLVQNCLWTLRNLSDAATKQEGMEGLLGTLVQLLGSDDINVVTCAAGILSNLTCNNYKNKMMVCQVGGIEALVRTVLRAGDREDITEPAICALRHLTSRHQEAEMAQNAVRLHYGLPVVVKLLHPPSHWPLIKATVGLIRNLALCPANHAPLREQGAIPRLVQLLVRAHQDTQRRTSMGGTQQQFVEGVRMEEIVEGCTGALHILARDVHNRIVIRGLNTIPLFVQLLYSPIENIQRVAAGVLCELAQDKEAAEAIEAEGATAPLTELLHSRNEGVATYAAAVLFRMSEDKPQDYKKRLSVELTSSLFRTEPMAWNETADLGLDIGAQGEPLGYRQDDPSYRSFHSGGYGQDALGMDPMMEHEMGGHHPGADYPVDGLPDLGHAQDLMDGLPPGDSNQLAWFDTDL

[2] = CHI Log D procedure; assay type: physicochemical
[3] = Solubility in PBS; assay type: physicochemical
How it was run: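 The PBS solution was ultracentrifuged and the supernatant analyzed by HPLC. Its peak area was divided by that of a 50 μM peptide DMSO reference injection and multiplied by 50 uM to give solubility.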

[4] = fluorescence polarization, read-out: beta-Catenin FP IC50

IC50 [1, 4] | IC50 ([1]; read-out: FP EC50) | CHI Log D ([2]; pH 7.4) | Solubility [3] | chromatographic logD ([2]; pH 7.4, CHI Log D) | Solubility ([3]; Solubility (uM)) | SMILES | IC50 ([1]; FP EC50 (nM), fluorescence polarization, beta-catenin) | chromatographic logD ([2]; pH 7.4)
81 nM | 81 nM | 2.023 | 40 µM (≈ 72.9 µg/mL) |  |  | CC(=O)N1CCC[C@]12CC=CCCCC1(CCCC=CCCCCCC[C@@](C)(C(=O)N[C@@H](Cc3ccccc3)C(=O)N[C@@H](Cc3csc4ccccc34)C(=O)N[C@@H](Cc3c[nH]cn3)C(N)=O)NC(=O)[C@H](CC(N)=O)NC(=O)[C@H](Cc3ccccc3)NC(=O)[C@H](C)NC(=O)[C@H](C)NC(=O)[C@H](CC(=O)O)NC(=O)[C@H](CC(=O)O)NC1=O)NC(=O)[C@H](C)NC(=O)[C@H](CC(=O)O)NC2=O (stereo partly drawn) [I-465, Ac-PL3-Asp-Ala-B5-Asp-Asp-Ala-Ala-Phe-Asn-S8-Phe-BztA-His-NH2] |  | 
5000 nM |  |  | 10 µM (≈ 18.5 µg/mL) | 2.94 |  | CC(=O)N1CCC[C@]12CC=CCCCC1(CCCC=CCCCCCC[C@@](C)(C(=O)N[C@@H](Cc3ccccc3)C(=O)N[C@@H](Cc3csc4ccccc34)C(=O)N[C@@H](CCC(N)=O)C(N)=O)NC(=O)[C@H](C(C)C)NC(=O)[C@H](Cc3ccccc3)NC(=O)[C@H](C)NC(=O)[C@H](C)NC(=O)[C@H](CC(=O)O)NC(=O)[C@H](CC(=O)NC3CCC3)NC1=O)NC(=O)[C@H](C)NC(=O)[C@H](CC(=O)O)NC2=O (stereo partly drawn) [I-539, Ac-PL3-Asp-Ala-B5-[NHCyBu]AsnR-Asp-Ala-Ala-Phe-Val-S8-Phe-BztA-Gln-NH2] |  | 
92 nM | 92 nM | 1.976 | 50 µM (≈ 91.7 µg/mL) |  |  | CC(=O)N1CCC[C@]12CC=CCCCC1(CCCC=CCCCCCC[C@@](C)(C(=O)N[C@@H](Cc3ccccc3)C(=O)N[C@@H](Cc3csc4ccccc34)C(=O)N[C@@H](CCC(N)=O)C(N)=O)NC(=O)[C@H](CC(N)=O)NC(=O)[C@H](Cc3ccsc3)NC(=O)[C@H](C)NC(=O)[C@H](C)NC(=O)[C@H](CCC(=O)O)NC(=O)[C@H](CC(=O)O)NC1=O)NC(=O)[C@H](C)NC(=O)[C@H](CC(=O)O)NC2=O (stereo partly drawn) [I-448, Ac-PL3-Asp-Ala-B5-Asp-Glu-Ala-Ala-3Thi-Asn-S8-Phe-BztA-Gln-NH2] |  | 
88 nM |  |  | 10 µM (≈ 19.1 µg/mL) | 2.62 |  | CC[C@H](C)[C@@H]1NC(=O)[C@H](CC(=O)O)NC(=O)[C@]2(CC=CCCCC3(CCCC=CCCCCCC[C@@](C)(C(=O)N[C@@H](Cc4ccccc4)C(=O)N[C@@H](Cc4csc5ccccc45)C(=O)N[C@@H](CCCNC(=N)N)C(N)=O)NC(=O)[C@H](CCC(N)=O)NC(=O)[C@H](Cc4ccccc4)NC(=O)[C@H](C)NC(=O)[C@H](C)NC(=O)[C@H](CCC(=O)O)NC(=O)[C@H](CC(=O)O)NC3=O)NC1=O)CCCN2C(C)=O (stereo partly drawn) [I-633, Ac-PL3-Asp-Ile-B5-Asp-Glu-Ala-Ala-Phe-Gln-S8-Phe-BztA-Arg-NH2] |  | 
425 nM |  |  |  | 2.76 | 49 µM (≈ 91.5 µg/mL) | CC[C@H](C)[C@@H]1NC(=O)[C@H](CC(=O)O)NC(=O)[C@]2(CC=CCCCC3(CCCC=CCCCCCC[C@@](C)(C(=O)N[C@@H](Cc4ccccc4)C(=O)N[C@@H](Cc4csc5ccccc45)C(=O)N[C@@H](CC(C)C)C(N)=O)NC(=O)[C@H](CCC(N)=O)NC(=O)[C@H](Cc4ccccc4)NC(=O)[C@H](C)NC(=O)[C@H](C)NC(=O)[C@H](CCC(=O)O)NC(=O)[C@H](CC(=O)O)NC3=O)NC1=O)CCCN2C(C)=O (stereo partly drawn) [I-634, Ac-PL3-Asp-Ile-B5-Asp-Glu-Ala-Ala-Phe-Gln-S8-Phe-BztA-Leu-NH2] |  | 

SMILES | IC50 [1, 4] | IC50 ([1]; read-out: FP EC50) | CHI Log D ([2]; pH 7.4) | Solubility [3] | chromatographic logD ([2]; pH 7.4, CHI Log D) | Solubility ([3]; Solubility (uM)) | IC50 ([1]; FP EC50 (nM), fluorescence polarization, beta-catenin) | chromatographic logD ([2]; pH 7.4)
C[C@@H]1NC(=O)[C@H](C)NC(=O)[C@H](CC(=O)O)NC(=O)[C@H](CC(=O)O)NC(=O)C2(CCCC=CCCCOC(=O)N3CC[C@@](C(=O)N[C@@H](Cc4ccsc4)C(=O)N[C@@H](Cc4csc5ccccc45)C(=O)N[C@@H](C(N)=O)[C@H](C)O)(C3)NC(=O)[C@H](CC(N)=O)NC(=O)[C@H](Cc3ccccc3)NC1=O)CCCC=CC[C@]1(CCCN1C(=O)CN=[N+]=[N-])C(=O)N[C@@H](CC(=O)O)C(=O)N[C@@H](CC(C)(C)C)C(=O)N2 (stereo partly drawn) [I-1058, AzAc-PL3-Asp-Npg-B5-Asp-Asp-Ala-Ala-Phe-Asn-PyrS2-3Thi-BztA-dThr-NH2] |  |  |  | 42 µM (≈ 81.2 µg/mL) |  |  | 14 nM | 2.25
